Data set [1] deals with H2030 cells. Description: TGFβ-induced EMT gene expression in H2030 cells. It is filed as cell-based, human. The settings on record: 48 h. On the procedure: Total RNA was extracted with the RNeasy Plus Mini Kit from Qiagen (Hilden, Germany) according to the manufacturer’s instructions. One microgram of RNA was reverse-transcribed using an iScript Reverse Transcription Supermix from Bio-Rad Laboratories (Hercules, CA, USA) to make single-stranded cDNA. The cDNAs were then mixed with Qi SYBR Green Supermix (Bio-Rad) for quantitative RT-PCR assay using a Bio-Rad I-cycler IQ quantitative thermocycler. All PCR samples were prepared in triplicate wells in a 96-well plate. After 40 cycles of PCR, melt curves were examined in order to ensure primer specificity. Fold changes in gene expression were calculated using the ΔΔCt method. Primers used for mouse were as follows: Oaz1 (5′-CCACTGCTTCGCCAGAGAG-3′) and (5′-CCCGGACCCAGGTTACTA-3′), Gli1 (5′- […]-3′ and 5′- GCT GATCCAGCCTAAGGTTCTC-3′), Ptch1 (5′-CCATCGGCGACAAGAACC-3′ and 5′-[…]-3′), Thbs1 (5′-[…]-3′ and 5′-CGGGGATCAGGTTGGCATT-3′), Cryab (5′-[…]-3′ and 5′-[…]-3′), Egr2 (5′-[…]-3′ and 5′-[…]-3′), CTGF (5′-GGGCCTCTTCTGCGATTTC-3′ and 5′-[…]-3′). […]
Figure 8 Inhibition of TGFβ-induced EMT in NSCLC cells. […] After 48 h, RNA was extracted and analyzed by Q-RT-PCR for the expression of the genes as indicated and normalized to GAPDH expression. […]

Data set [2] in a line: Metabolic stability in mouse liver microsomes. Format: in vitro ADME.

`C[C@]12CC[C@H]3[C@@H](CC=C4C[C@@H](O)CC[C@@]43C)[C@@H]1CC[C@@H]2[C@](C)(O)CCc1cccnc1` [Oxy210, (3S,8S,9S,10R,13S,14S,17S)-17-((R)-2-hydroxy-4-(pyridin-3-yl)butan-2-yl)-10,13-dimethyl-2,3,4,7,8,9,10,11,12,13,14,15,16,17-tetradecahydro-1H-cyclopenta[a]phenanthren-3-ol]: the “genes associated with TGFβ-induced EMT” value in data set [1] was “complete suppression”. For the same molecule, in data set [2] (read-out: MLM, % Remaining after 60 min), the fraction remaining (usually the share of the starting amount still present when the sample was taken) at 1 h stood at 61%. Moreover, the half-life (as a rule, the time needed for the level to fall by half in the phase considered) in data set [2] (read-out: MLM, Half-Life) worked out at 1.4 h.

(Values after paper PMC6829886, “Inhibition of Non-Small Cell Lung Cancer Cells by Oxy210, an Oxysterol-Derivative that Antagonizes TGFβ and Hedgehog Signaling” (Cells, 2019).)
